In ChEMBL document CHEMBL1149721, “New Alkaloids from Haplophyllum tuberculatum” (J Nat Prod, 1992):
Calls of active or inactive are those of the source. No cut-off for these calls is given here.

Test system: Staphylococcus aureus
Experiment: Antimicrobial activity against Staphylococcus aureus at 100 ug/ml
Format: functional, organism-based

Q: CC(=O)O[C@@H](CC[C@]1(C)O[C@@H]1COc1ccc(CCNC(=O)c2ccccc2)cc1)C(C)(C)OC(C)=O was tested. Which Activity did it give?
A: inactive

Q: For COc1c2ccoc2nc2c(CC=C(C)C)c(O)ccc12, which Activity is on record?
A: inactive

Q: CC(=O)OC(C)(C)[C@@H]1CC[C@](C)([C@H](O)COc2ccc(CCNC(=O)c3ccccc3)cc2)O1 was tested. Which Activity did it give?
A: inactive

Q: With CC(=O)O[C@@H](CC[C@]1(C)O[C@@H]1COc1ccc(CCNC(=O)C=C(C)C)cc1)C(C)(C)OC(C)=O as the molecule, how does the Activity read?
A: inactive

Q: How did the Activity turn out when CC(=O)O[C@H](COc1ccc(CCNC(=O)c2ccccc2)cc1)[C@@]1(C)CC[C@@H](C(C)(C)OC(C)=O)O1 was run?
A: inactive
